Like-named read-outs stand apart in the source and are kept apart here.
Tests used:
[1] = test system: Daphnia galeata-mendotae (clone CDF-1); settings: in vivo
[2] = test system: Daphnia; settings: in vivo; cited from earlier work
[3] = test system: D. magna; settings: daphnia, in vivo; cited from earlier work
[4] = test system: D. magna; settings: daphnia, in vivo, cited from earlier work
[5] = test system: fish, mammals and birds; settings: cited from earlier work
[6] = test system: Daphnia; settings: in vivo, 48 h
[7] = test system: retinoid X receptors; settings: cited from earlier work
[8] = test system: vertebrate systems; settings: cited from earlier work
[9] = test system: Daphnia; settings: in vivo; cited from earlier work; remark: listed apart in the source
[10] = test system: Daphnia galeata mendotae (CDF-1 clone); settings: in vivo
[11] = test system: Daphnia; settings: in vivo; cited from earlier work; remark: listed apart in the source
[12] = test system: Daphnia galeata mendotae Wingra CDF-1 clone; settings: in vivo
[13] = test system: Daphnia carinata; settings: in vivo; cited from earlier work
[14] = test system: Daphnia; settings: in vivo, cited from earlier work

For nonylphenol, the “Live young with deformity” value [1] was 11%, the “Population growth rate r” value [1] was “nonlinear pattern” and the Survival [1] was “low survival”. The Developmental deformity [2] was “cause a characteristic deformity”, the “No-observed effect concentration (NOEC)” value [3] was 24 μgL-L^-1 and the “Chronic LC50” value ([4]; 168 h) was 0.12 µg/mL. For the same molecule, the “Chronic LC50” value ([4]; 336 h) was 0.12 µg/mL, the “Chronic LC50” value ([4]; 504 h) was 0.1 µg/mL and the Estrogenicity [5] was “estrogenic to fish, mammals and birds”. The Mortality [6] was 100%.
For `COC(C)(C)CCC[C@H](C)C/C=C/C(C)=C/C(=O)OC(C)C` (racemic) [methoprene], the “Gene transcription in mammals via retinoid X receptors” value [7] is listed as “can stimulate gene transcription in mammals by activating retinoid X receptors”.
For `ClC1=C(Cl)[C@]2(Cl)[C@@H]3[C@@H]4C[C@@H]([C@H]5O[C@@H]45)[C@@H]3[C@@]1(Cl)C2(Cl)Cl` [Dieldrin, dieldrin], the Estrogenicity [8] is given as “weakly estrogenic”, the “Effect on sex ratio” value [9] is given as “no effect of dieldrin on sex ratio” and the “Concentration of no effect on sex ratio / above which sex ratio is reduced” value ([10]; daphnia) is given as “about 30 ppb”. For the same molecule, the “X intercept of regression line of sex ratio index vs log dieldrin” value ([10]; daphnia) was 31 ppb, the “Adult survival or clutch size, effect” value [10] was “Neither insecticide significantly affected adult survival or clutch size” and the Endocrine disruption activity [10] was “shows endocrine disruption activity in Daphnia”. For the same molecule, the Morphological abnormalities [10] was “Neither insecticide caused morphological abnormalities”, the “Regression line, sex ratio index (Y) vs log ppb dieldrin (X)” value [10] was “Y=-0.0195X+0.299” and the “Concentration below which little or no effect on population growth rate” value [11] was “about 220 ppb”. The “Effect versus controls (sex ratio, males)” value [12] was “no difference”.
For `O=S1OCC2C(CO1)C1(Cl)C(Cl)=C(Cl)C2(Cl)C1(Cl)Cl` (stereo not drawn) [Endosulfan, endosulfan], the Estrogenicity [8] is given as “weakly estrogenic”, the “Adult survival or clutch size, effect” value [10] is given as “Neither insecticide significantly affected adult survival or clutch size” and the Morphological abnormalities [10] is given as “Neither insecticide caused morphological abnormalities”. For the same molecule, the “Sex ratio, effect” value [10] was “No endosulfan effect was observed”, the “Concentrations reducing body length and weight, egg mass and brood size” value [13] was 40-160 ppb and the “Effect versus controls (sex ratio, males)” value [12] was “a tendency for a reduction of males”. For the same molecule, the “Lowest concentration with reported morphological changes” value ([14]; daphnia) was 0.1 μgL^-1, the “Concentration affecting Daphnia population growth” value [14] was “about 120 ppb” and the “Concentration reducing filtration and assimilation rates” value [14] was 440-600 ppb.

From patent publication US6150126A, “Daphnia reproductive bioassay for testing toxicity of aqueous samples and presence of an endocrine disrupter” (Wisconsin Alumni Research Foundation, priority 1998, dated 2000)
